Results taken from the supplement of paper PMC11451515.

System: NOMO1
Assay: cell viability relative to DMSO control; higher = less cytotoxic
Conditions: RPMI 5 mM glucose + 10% FBS, 48 h
Summary of the method: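 In 1536-well plates, 5 μl of leukemia cells were seeded per well: 500 cells/well for NOMO1 or SEM and 1000 cells/well for P12-Ichikawa. Each line had first been adapted for at least four passages in each medium. Library compounds in DMSO were pin-dosed at 11 threefold concentrations between 47 μM and 0.79 nM, and CellTiter-Glo One luminescence was read after 48 h at 37°C. Viability is a per-plate percentage relative to DMSO wells, with cell-free wells as background.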

O=[S+]([O-])(/N=C/c1c(O)ccc2ccccc12)c1cccs1
Conditions	cell viability [%]
0.000781 µM	113
0.00234 µM	126
0.00702 µM	111
0.0211 µM	124
0.0632 µM	129
0.19 µM	129
0.569 µM	114
1.71 µM	113
5.12 µM	126
15.4 µM	107
46.1 µM	126
